For assay [1] the following is noted: concentration X humans' ability to detect; cited from earlier work.
For assay [2] the following is noted: trained expert panel; cited from earlier work.
Assay [3] addresses LePEDH (tomato 2-phenylethanol dehydrogenase, full-length cLET2M9) (Solanum lycopersicum, UniProt A6N6K7). As to the kind of experiment: Alcohol dehydrogenase activity of E. coli expressed His-tagged LePEDH on phenylacetaldehyde and related substrates (Km). It is filed as biochemical. To be noted: His tag. On the procedure:
The 2-phenylethanol dehydrogenase coding region of the full-length cLET2M9 was cloned in vector pDEST17 with a His tag and transformed into E. coli BL21-AI cells for inducible expression. Alcohol dehydrogenase activities on phenylacetaldehyde and several related substrates were determined.

Assay [4] has as its system 2-phenylethanol dehydrogenase (full-length cLET2M9). It is filed as biochemical, tomato. To be noted: GST-tagged enzyme, decrease in OD340. On the procedure:
A full-length 2-phenylethanol dehydrogenase cDNA was cloned by 5′ RACE from tomato fruit cDNA using primer 5′-[…]-3′ (SEQ ID NO: 3). Following sequence analysis the full-length cDNA was obtained by PCR. The coding region was cloned into vector pDEST15 containing a GST tag (Invitrogen) by recombination, and transformed into E. coli strain BL21-SI (Invitrogen) for inducible protein expression. Enzyme activity of crude E. coli extracts was determined by the method of Larroy et al. (2002) using phenylacetaldehyde, cinnamaldehyde or vanillin as a substrate.
The 2-phenylethanol dehydrogenase coding region of the full-length cLET2M9 and the related cLEG71F12 were cloned in vector pDEST15 with a GST tag and transformed into E. coli BL21-SI cells for inducible expression. The production of recombinant protein in E. coli was determined by Western blotting with an anti-GST antibody.

The values that follow come from patent US8709811B2, “Materials and methods for synthesis of a flavor and aroma volatile in plants” (University of Florida Research Foundation, Inc., priority 2003, dated 2014).

The structures appear in SMILES notation. Entries after “also recorded” stand apart in the source; their conditions may differ.

Chain of LePEDH (tomato 2-phenylethanol dehydrogenase, full-length cLET2M9) (A6N6K7 entry or part of it): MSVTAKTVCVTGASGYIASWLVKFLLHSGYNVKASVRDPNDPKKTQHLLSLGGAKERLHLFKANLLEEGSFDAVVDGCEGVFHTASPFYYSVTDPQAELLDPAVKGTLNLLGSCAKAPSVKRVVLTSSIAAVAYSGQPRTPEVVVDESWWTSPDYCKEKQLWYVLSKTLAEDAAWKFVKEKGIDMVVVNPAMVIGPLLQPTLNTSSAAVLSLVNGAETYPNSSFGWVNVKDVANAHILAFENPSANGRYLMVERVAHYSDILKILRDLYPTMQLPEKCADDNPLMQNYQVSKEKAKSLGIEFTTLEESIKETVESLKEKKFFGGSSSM

With `C=CC(=O)CC` [1-Penten-3-one], the Log odor units in assay [1] was 2.7. For the same molecule, the “Odor Characteristics” value in assay [2] is “fruity; also recorded: floral/green”. `O=[N+]([O-])CCc1ccccc1` [1-nitro-2-Phenylethane]: the Log odor units in assay [1] is reported as 0.9. Moreover, in assay [2], the “Odor Characteristics” value is “musty, earthy”. As for `CC(C)Cc1nccs1` [2-Isobutylthiazole], in assay [1], the Log odor units is given as 1.0. For the same molecule, the “Odor Characteristics” value in assay [2] is “Tomato vine”.

Consider `OCCc1ccccc1` [2-Phenylethanol], for which the Log odor units in assay [1] is given as 0.3. Also, the “Odor Characteristics” value in assay [2] was “Nutty”. For `CC(C)CCO` [3-Methylbutanol], in assay [1], the Log odor units is listed as 0.2. In assay [2], the “Odor Characteristics” value was “earthy, musty”.

Consider `CC(=O)CCC=C(C)C` [6-Methyl-5-hepten-2-one], for which the Log odor units in assay [1] was 0.4. Moreover, in assay [2], the “Odor Characteristics” value was “fruity, floral”. As for `O=Cc1ccccc1` [Benzaldehyde], the “Alcohol dehydrogenase activity level as substrate” value in assay [3] is “Lower activity levels”. Regarding `O=C/C=C/c1ccccc1` [Cinnamaldehyde], the “Alcohol dehydrogenase activity level as substrate” value in assay [3] and in assay [4] was “Lower activity levels” each time. With `CCCCCC=O` [Hexanal], the Log odor units in assay [1] was 2.8. Besides, the “Odor Characteristics” value in assay [2] is recorded as “green/grassy”. Regarding `COC(=O)c1ccccc1O` [Methyl salicylate], in assay [1], the Log odor units is recorded as 0.08. The “Odor Characteristics” value in assay [2] is given as “wintergreen”.

In the case of `O=CCc1ccccc1` [Phenylacetaldehyde], the “Alcohol dehydrogenase activity level as substrate” value is listed as “highest level of activity” in assay [3] and “highest level of activity; also recorded: Highest activity levels” in assay [4]. For the same molecule, the Log odor units in assay [1] is 0.6. In addition, the “Odor Characteristics” value in assay [2] is on record as “floral/alcohol”. For `CC/C=C\CC=O` [cis-3-Hexenal], the Log odor units in assay [1] is reported as 3.7. For the same molecule, the “Odor Characteristics” value in assay [2] is on record as “Tomato/green”. For the molecule `O=Cc1ccccc1O` [salicylaldehyde], the “Alcohol dehydrogenase activity level as substrate” value in assay [3] is “no detectable activity”. On to `CCCC/C=C/C=O` [trans-2-Heptenal], for which the Log odor units in assay [1] is recorded as 0.7. The “Odor Characteristics” value in assay [2] is “Green”.

For the molecule `CCC/C=C/C=O` [trans-2-Hexenal], in assay [1], the Log odor units is 1.2. Also, in assay [2], the “Odor Characteristics” value is given as “Green”.

As for `COc1cc(C=O)ccc1O` [vanillin], the “Alcohol dehydrogenase activity level as substrate” value in assay [4] is given as “negligible activity”.

For the molecule `C/C=C/C(=O)C1=C(C)C=CCC1(C)C` [β-Damascenone], the Log odor units in assay [1] is recorded as 2.7. Besides, the “Odor Characteristics” value in assay [2] is recorded as “Fruity”. Consider `CC(=O)/C=C/C1=C(C)CCCC1(C)C` [β-ionone], for which, in assay [1], the Log odor units is 2.8. Moreover, the “Odor Characteristics” value in assay [2] was “fruity/floral”.
